The record followed here is US8623885B2, “Fused tricyclic dual inhibitors of CDK 4/6 and FLT3” (Amgen Inc., priority 2011, dated 2014).

The IC50 is the point on the concentration scale where inhibition reaches its midpoint. Lower therefore signals greater potency.

Each structure is given as a SMILES string.

One experiment has as its target CDK4/Cyclin D1 (Homo sapiens (Human), UniProt P11802). The experiment can be described thus: CDK4 filtration kinase assay. In kind it is biochemical. To be noted: CDK4/Cyclin D1, Rb fragment substrate, [33P]-ATP filtration assay. Here is the method: The CDK4 and CDK1 inhibitory activity of the CDK4/6-FLT3 inhibitors was determined with a filtration kinase assay. The compounds, kinase and substrate diluted in the kinase buffer (20 mM Tris, pH7.4, 50 mM NaCl, 1 mM DTT, 0.1% BSA) were sequentially added to a 96-well Multiscreen HTS filtration plate (Millipore). The final 100 μL reaction mixture in each well contained 0.3 μg of CDK4/Cyclin D1 or CDK1/Cyclin B (Cell Signaling Technology), 1 μg of Rb fragment (aa773-928, Millipore) for the CDK4 assay or 5 μg of histone H1 for the CDK1 assay and 1 μCi of [^33P]-ATP. The mixture was incubated at room temperature for 1 hour. The proteins in the reaction were then precipitated and washed with cold TCA solution using an aspiration/filtration vacuum system. The plates were dried at room temperature, and the retained radioactivity was measured by scintillation counting.
(§1) IC50 values of the compounds in the above assays were determined by non-linear regression analysis using Prism (GraphPad Software).

Another experiment has as its system MOLM13 cells. Kind of experiment: [14C]-thymidine incorporation cell proliferation assay, MOLM13. Type of experiment: cell-based, human. The settings on record: Homo sapiens, MOLM-13, 72 hour incubation. Here is the method:
The cell proliferation inhibition potency of the CDK4/6-FLT3 inhibitors was determined by using a [^14C]-thymidine incorporation assay. Exponentially growing cells (MOLM-13, Colo-205, etc.) were seeded in a 96-well Cytostar T plate (GE Healthcare Biosciences) at a density of 5×10^3 cells/well and incubated overnight. Serially diluted compounds and 0.1 μCi of [^14C]-thymidine (GE Healthcare Biosciences) were added to each well on the following day. After 72 hour incubation, isotope incorporation was determined with a β plate counter (Wallac). MOLM13 is a human AML tumor cell line expressing FLT3, FLT3^ITD and wild type Rb.
as §1
Background: Uptake of a labelled nucleoside into DNA is a usual measure of proliferation.

Experiment [1] addresses FLT3 enzyme (GST-FLT3 fusion) (Homo sapiens (Human), UniProt P36888). The experiment can be described thus: FLT3 HTRF kinase assay. In kind it is biochemical. The settings on record: 116 μM ATP. Here is the method:
The FLT3 inhibitory activity of the CDK4/6-FLT3 inhibitors was determined with a HTRF kinase assay. The FLT3 enzyme (GST-FLT3 fusion) was purchased from Carna Biosciences. An ULight-labeled synthetic peptide derived from human Janus kinase 1 (aa1015-1027, ULight-JAK1, PerkinElmer) was utilized as the phosphoacceptor substrate. The assay was conducted in a 384-well white OptiPlate (PerkinElmer). The 20 μL reaction mixture contained 50 nM ULight-JAK1, 116 μM ATP, 0.0385 ng/μL FLT3 and dilutions of test compounds in the kinase buffer (50 mM Hepes, pH 7.6, 1 mM EGTA, 10 mM MgCl2, 2 mM DTT, and 0.005% Tween 20). The reaction was allowed to proceed for 1 hour at room temperature and was stopped by adding 20 μL of 10 mM EDTA, 2 nM LANCE® Eu-W1024 anti-phospho-tyrosine antibody in LANCE® detection buffer (PerkinElmer). The plates were incubated at room temperature for 2 hours after addition of detection reagents and then read on an Envision multimode reader (PerkinElmer).
as §1
A general note: Time-resolved FRET reads energy transfer from a long-lived donor to a nearby acceptor.

Sequence of CDK4/Cyclin D1 (P11802 whole entry, the tested form may be a part): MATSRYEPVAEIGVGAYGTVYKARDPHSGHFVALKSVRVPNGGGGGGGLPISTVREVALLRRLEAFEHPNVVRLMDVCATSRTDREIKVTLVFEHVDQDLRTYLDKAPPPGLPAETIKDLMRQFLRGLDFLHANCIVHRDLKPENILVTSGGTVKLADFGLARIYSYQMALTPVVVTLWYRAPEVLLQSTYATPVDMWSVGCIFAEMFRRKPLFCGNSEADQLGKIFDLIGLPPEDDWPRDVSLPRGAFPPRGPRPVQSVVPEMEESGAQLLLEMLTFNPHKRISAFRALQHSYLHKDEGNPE
Sequence of CDK4/Cyclin D1 (P24385 whole entry partner, the tested form may be a part): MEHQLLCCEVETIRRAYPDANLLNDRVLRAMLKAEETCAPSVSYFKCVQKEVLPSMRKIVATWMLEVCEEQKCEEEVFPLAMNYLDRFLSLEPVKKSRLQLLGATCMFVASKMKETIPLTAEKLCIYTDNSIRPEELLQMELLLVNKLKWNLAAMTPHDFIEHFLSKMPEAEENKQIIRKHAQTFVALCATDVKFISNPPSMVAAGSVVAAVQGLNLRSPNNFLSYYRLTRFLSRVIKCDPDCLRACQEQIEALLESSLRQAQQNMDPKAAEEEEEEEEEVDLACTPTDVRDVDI
Sequence of FLT3 enzyme (GST-FLT3 fusion) (P36888 27-993): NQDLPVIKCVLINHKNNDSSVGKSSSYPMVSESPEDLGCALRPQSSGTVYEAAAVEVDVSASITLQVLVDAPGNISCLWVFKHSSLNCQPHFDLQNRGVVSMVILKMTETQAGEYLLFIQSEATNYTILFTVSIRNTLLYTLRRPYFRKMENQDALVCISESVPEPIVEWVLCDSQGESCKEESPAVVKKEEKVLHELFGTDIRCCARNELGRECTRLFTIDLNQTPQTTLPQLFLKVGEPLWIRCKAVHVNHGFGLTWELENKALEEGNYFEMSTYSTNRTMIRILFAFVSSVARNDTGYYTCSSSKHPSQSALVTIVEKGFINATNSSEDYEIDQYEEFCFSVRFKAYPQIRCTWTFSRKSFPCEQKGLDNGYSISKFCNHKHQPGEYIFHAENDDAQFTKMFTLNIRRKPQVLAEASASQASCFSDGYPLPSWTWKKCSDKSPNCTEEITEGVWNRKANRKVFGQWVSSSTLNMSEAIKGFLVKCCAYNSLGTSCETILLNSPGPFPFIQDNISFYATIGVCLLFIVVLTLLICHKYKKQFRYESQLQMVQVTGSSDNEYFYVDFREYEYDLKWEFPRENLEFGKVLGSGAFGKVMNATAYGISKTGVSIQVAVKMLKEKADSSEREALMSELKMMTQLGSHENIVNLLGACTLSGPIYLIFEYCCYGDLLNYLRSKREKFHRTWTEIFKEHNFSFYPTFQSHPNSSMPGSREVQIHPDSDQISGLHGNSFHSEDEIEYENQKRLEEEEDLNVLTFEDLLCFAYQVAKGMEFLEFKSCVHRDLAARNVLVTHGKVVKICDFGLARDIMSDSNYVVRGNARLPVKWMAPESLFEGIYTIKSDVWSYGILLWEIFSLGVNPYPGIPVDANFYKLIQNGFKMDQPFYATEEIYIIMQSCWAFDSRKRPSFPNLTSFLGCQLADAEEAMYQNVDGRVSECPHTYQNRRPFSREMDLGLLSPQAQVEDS

Take `CC(C)(C)OC(=O)N1CCc2cc(Nc3ncc4c5ccncc5n([C@H]5CC[C@H](C)CC5)c4n3)ncc2C1` [Example 36, tert-Butyl 6-((9-((1r,4r)-4-methylcyclohexyl)-9H-pyrido[4′,3′:4,5]pyrrolo[2,3-d]pyrimidin-2-yl)amino)-3,4-dihydro-2,7-naphthyridine-2(1H)-carboxylate]: the IC50 on CDK4/Cyclin D1 was 350 nM.
For the molecule `C[C@H]1CC[C@H](n2c3cnccc3c3cnc(Nc4cc5c(cn4)CNCC5)nc32)CC1` [Example 24, 9-((1r,4r)-4-Methylcyclohexyl)-N-(5,6,7,8-tetrahydro-2,7-naphthyridin-3-yl)-9H-pyrido[4′,3′:4,5]pyrrolo[2,3-d]pyrimidin-2-amine], the IC50 amounted to 4.7 nM at CDK4/Cyclin D1 and 3.5 nM in the experiment with MOLM13 cells.
As for `C[C@@H](O)C(=O)N1CCc2nc(Nc3ncc4c5ccncc5n([C@H]5CC[C@H](C)CC5)c4n3)ccc2C1` [Example 33, (R)-2-hydroxy-1-(2-((9-((1r,4r)-4-methylcyclohexyl)-9H-pyrido[4′,3′:4,5]pyrrolo[2,3-d]pyrimidin-2-yl)amino)-7,8-dihydro-1,6-naphthyridin-6(5H)-yl)propan-1-one], the IC50 against CDK4/Cyclin D1 was 41 nM; in the experiment on MOLM13 cells, 3.1 nM.
In the same order, the values of `CCN(CC)CC(=O)N1CCc2nc(Nc3ncc4c5ccncc5n([C@H]5CC[C@H](C)CC5)c4n3)ccc2C1` [Example 37, 2-(Diethylamino)-1-(2-((9-((1r,4r)-4-methylcyclohexyl)-9H-pyrido[4′,3′:4,5]pyrrolo[2,3-d]pyrimidin-2-yl)amino)-7,8-dihydro-1,6-naphthyridin-6(5H)-yl)ethanone] are 3 nM and 1.4 nM.
On to `C[C@H]1CC[C@H](n2c3cnccc3c3cnc(Nc4ccc5c(n4)CCN(C(=O)C(=O)O)C5)nc32)CC1` [Example 6, 2-(2-((9-((1r,4r)-4-Methylcyclohexyl)-9H-pyrido[4′,3′:4,5]pyrrolo[2,3-d]pyrimidin-2-yl)amino)-7,8-dihydro-1,6-naphthyridin-6(5H)-yl)-2-oxoacetic acid], for which the IC50 in experiment [1] stood at 3.3 nM; on CDK4/Cyclin D1, 120 nM; with MOLM13 cells, 46 nM.
For the molecule `C[C@H]1CC[C@H](n2c3cnccc3c3cnc(Nc4ccc5c(n4)C(O)CN(CCO)C5)nc32)CC1` (stereo partly shown) [Example 17, 6-(2-Hydroxyethyl)-2-((9-((1r,4r)-4-methylcyclohexyl)-9H-pyrido[4′,3′:4,5]pyrrolo[2,3-d]pyrimidin-2-yl)amino)-5,6,7,8-tetrahydro-1,6-naphthyridin-8-ol], in the experiment with MOLM13 cells, half-maximal inhibition (IC50) required 21.9 nM.
Take `C[C@H]1CC[C@H](n2c3cnccc3c3cnc(Nc4ccc5c(n4)CCNC5)nc32)CC1` [Example 1, 9-((1r,4r)-4-Methylcyclohexyl)-N-(5,6,7,8-tetrahydro-1,6-naphthyridin-2-yl)-9H-pyrido[4′,3′:4,5]pyrrolo[2,3-d]pyrimidin-2-amine]: the IC50 came out at 1.3 nM in experiment [1], 2.1 nM on CDK4/Cyclin D1 and 15.2 nM in the experiment on MOLM13 cells.
Regarding `C[C@H](O)C(=O)N1CCc2nc(Nc3ncc4c5ccncc5n([C@H]5CC[C@H](C)CC5)c4n3)ccc2C1` [Example 32, (S)-2-Hydroxy-1-(2-((9-((1r,4r)-4-methylcyclohexyl)-9H-pyrido[4′,3′:4,5]pyrrolo[2,3-d]pyrimidin-2-yl)amino)-7,8-dihydro-1,6-naphthyridin-6(5H)-yl)propan-1-one], the IC50 is 12 nM at CDK4/Cyclin D1 and 1.8 nM in the experiment with MOLM13 cells.
For `O=C(CO)N1CCc2nc(Nc3ncc4c5ccncc5n(C5CCCC5)c4n3)ccc2C1` [Example 22, 1-(2-((9-Cyclopentyl-9H-pyrido[4′,3′:4,5]pyrrolo[2,3-d]pyrimidin-2-yl)amino)-7,8-dihydro-1,6-naphthyridin-6(5H)-yl)-2-hydroxyethanone], the IC50 in experiment [1] stood at 0.65 nM; on CDK4/Cyclin D1 it was 36 nM; in the experiment with MOLM13 cells, 5.2 nM.
For `C[C@H]1CC[C@H](n2c3cnccc3c3cnc(Nc4ccc5c(n4)C(O)CNC5)nc32)CC1` (stereo partly shown) [Example 16, 2-((9-((1r,4r)-4-Methylcyclohexyl)-9H-pyrido[4′,3′:4,5]pyrrolo[2,3-d]pyrimidin-2-yl)amino)-5,6,7,8-tetrahydro-1,6-naphthyridin-8-ol], the half-maximal inhibitory concentration (IC50) in experiment [1] came out at 1.4 nM; against CDK4/Cyclin D1, 16.5 nM; in the experiment on MOLM13 cells, 23.9 nM.
Turning to `C[C@H]1CC[C@H](n2c3cnccc3c3cnc(Nc4ccc5c(n4)CNCC5)nc32)CC1` [Example 23, 9-((1r,4r)-4-Methylcyclohexyl)-N-(5,6,7,8-tetrahydro-1,7-naphthyridin-2-yl)-9H-pyrido[4′,3′:4,5]pyrrolo[2,3-d]pyrimidin-2-amine], the values for the IC50 against CDK4/Cyclin D1 and with MOLM13 cells were 8.6 nM and 1.5 nM, respectively.
Turning to `C[C@H]1CC[C@H](n2c3cnccc3c3cnc(Nc4ccc5c(n4)CCN(CCO)C5)nc32)CC1` [Example 3, 2-(2-((9-((1r,4r)-4-Methylcyclohexyl)-9H-pyrido[4′,3′:4,5]pyrrolo[2,3-d]pyrimidin-2-yl)amino)-7,8-dihydro-1,6-naphthyridin-6(5H)-yl)ethanol], the IC50 was found to be 1.8 nM in experiment [1], 2.6 nM at CDK4/Cyclin D1 and 14.8 nM in the experiment with MOLM13 cells.
Take `C[C@H]1CC[C@H](n2c3cnccc3c3cnc(Nc4ccc5c(n4)CN(C(=O)CO)CC5)nc32)CC1` [Example 30, 2-Hydroxy-1-(2-((9-((1r,4r)-4-methylcyclohexyl)-9H-pyrido[4′,3′:4,5]pyrrolo[2,3-d]pyrimidin-2-yl)amino)-5,6-dihydro-1,7-naphthyridin-7(8H)-yl)ethanone]: the IC50 on CDK4/Cyclin D1 came to 6.3 nM; in the experiment with MOLM13 cells it was 3 nM.
`C[C@H]1CC[C@H](n2c3cnccc3c3cnc(Nc4cc5c(cn4)CCNC5)nc32)CC1` [Example 11, 9-((1r,4r)-4-Methylcyclohexyl)-N-(5,6,7,8-tetrahydro-2,6-naphthyridin-3-yl)-9H-pyrido[4′,3′:4,5]pyrrolo[2,3-d]pyrimidin-2-amine]: the IC50 in experiment [1] is 73.7 nM; on CDK4/Cyclin D1 it was 257 nM; in the experiment with MOLM13 cells it was more than 3000 nM.
With `CN(C)CC(=O)N1CCc2nc(Nc3ncc4c5ccncc5n([C@H]5CC[C@H](C)CC5)c4n3)ccc2C1` [Example 34, 2-(Dimethylamino)-1-(2-((9-((1r,4r)-4-methylcyclohexyl)-9H-pyrido[4′,3′:4,5]pyrrolo[2,3-d]pyrimidin-2-yl)amino)-7,8-dihydro-1,6-naphthyridin-6(5H)-yl)ethanone], the IC50 at CDK4/Cyclin D1 worked out at 3 nM; with MOLM13 cells, 0.3 nM.
On to `C[C@H]1CC[C@H](n2c3cnccc3c3cnc(Nc4ccc5c(n4)CCN(CCF)C5)nc32)CC1` [Example 9, N-(6-(2-Fluoroethyl)-5,6,7,8-tetrahydro-1,6-naphthyridin-2-yl)-9-((1r,4r)-4-methylcyclohexyl)-9H-pyrido[4′,3′:4,5]pyrrolo[2,3-d]pyrimidin-2-amine], for which the figures for the IC50 (in experiment [1]; on CDK4/Cyclin D1; in the experiment on MOLM13 cells) were 3.4 nM, 72.8 nM and 64.9 nM, respectively.
Turning to `C[C@H]1CC[C@H](n2c3cnccc3c3cnc(Nc4cc5c(cn4)CN(C(=O)CO)CC5)nc32)CC1` [Example 31, 2-Hydroxy-1-(6-((9-((1r,4r)-4-methylcyclohexyl)-9H-pyrido[4′,3′:4,5]pyrrolo[2,3-d]pyrimidin-2-yl)amino)-3,4-dihydro-2,7-naphthyridin-2(1H)-yl)ethanone], the IC50 is 35 nM against CDK4/Cyclin D1 and 6.7 nM in the experiment on MOLM13 cells.
Turning to `C[C@H]1CC[C@H](n2c3cnccc3c3cnc(Nc4ccc5c(n4)CCN(CCC(F)(F)F)C5)nc32)CC1` [Example 7, 9-((1r,4r)-4-Methylcyclohexyl)-N-(6-(3,3,3-trifluoropropyl)-5,6,7,8-tetrahydro-1,6-naphthyridin-2-yl)-9H-pyrido[4′,3′:4,5]pyrrolo[2,3-d]pyrimidin-2-amine], the figures for the IC50 (in experiment [1]; with MOLM13 cells) were 21.4 nM and 206 nM, respectively.
For the molecule `CC(C)(C)OC(=O)N1CCc2ccc(Nc3ncc4c5ccncc5n([C@H]5CC[C@H](C)CC5)c4n3)nc2C1` [Example 35, tert-Butyl 2-((9-((1r,4r)-4-methylcyclohexyl)-9H-pyrido[4′,3′:4,5]pyrrolo[2,3-d]pyrimidin-2-yl)amino)-5,6-dihydro-1,7-naphthyridine-7(8H)-carboxylate], the IC50 came to 26 nM at CDK4/Cyclin D1 and 480 nM in the experiment with MOLM13 cells.
